Source: patent US6358885B1, “Substituted phenylheterocyclic herbicides” (Mississippi State University, priority 1992, dated 2002)

What was measured:
Experiment in all cases: Test B preemergence/postemergence greenhouse plant response rating 0 to 10
[1] = system: rape; format: in vivo, Brassica napus; details: for Plant response rating, Rape: 0 to 10 scale; for Plant response rating (0 to 10 scale), Rape: Rate 100 g/ha
In short: (§1)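 Test chemicals were sprayed onto freshly planted seed and, concurrently, onto young plants between the one and four leaf stage. After a twelve- to sixteen-day greenhouse period, each species was visually compared with untreated controls.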

[2] = system: wheat; format: in vivo, Triticum aestivum; details: for Plant response rating, Wheat: 0 to 10 scale; for Plant response rating (0 to 10 scale), Wheat: Rate 100 g/ha
In short: as §1

[3] = system: crabgrass; format: in vivo, Digitaria spp.; details: for Plant response rating, Crabgrass: 0 to 10 scale
In short: as §1

[4] = system: sorghum; format: in vivo, Sorghum bicolor; details: for Plant response rating, Sorghum: 0 to 10 scale; for Plant response rating (0 to 10 scale), Sorghum: Rate 100 g/ha
In short: as §1

[5] = system: morningglory; format: in vivo, Ipomoea hederacea; details: for Plant response rating, Morningglory: 0 to 10 scale; for Plant response rating (0 to 10 scale), Morningglory: Rate 100 g/ha
In short: as §1

[6] = system: wild oat; format: in vivo, Avena fatua; details: for Plant response rating, Wild oat: 0 to 10 scale; for Plant response rating (0 to 10 scale), Wild oat: Rate 100 g/ha
In short: as §1

[7] = system: purple nutsedge; format: in vivo, Cyperus rotundus; details: for Plant response rating, Nutsedge: 0 to 10 scale; for Plant response rating (0 to 10 scale), Nutsedge: Rate 100 g/ha
In short: as §1

[8] = system: soybean; format: in vivo, Glycine max; details: for Plant response rating, Soybean: 0 to 10 scale; for Plant response rating (0 to 10 scale), Soybean: Rate 100 g/ha
In short: as §1

[9] = system: corn; format: in vivo, Zea mays; details: for Plant response rating, Corn: 0 to 10 scale
In short: as §1

[10] = system: chickweed; format: in vivo, Stellaria media; details: for Plant response rating, Chickweed: 0 to 10 scale
In short: as §1

Clc1ccc(-c2nc3n(c2Br)CCCC3)c(Cl)c1 [Compound 2]
1: Plant response rating, Wheat ([2]; POSTEMERGENCE, Rate 50 g/ha) | Plant response rating (0 to 10 scale), Chickweed ([10]; POSTEMERGENCE, Rate 50 g/ha)
4: Plant response rating, Sorghum ([4]; POSTEMERGENCE, Rate 50 g/ha) | Plant response rating (0 to 10 scale), Sorghum ([4]; POSTEMERGENCE) | Plant response rating, Corn ([9]; POSTEMERGENCE, Rate 200 g/ha) | Plant response rating, Corn ([9]; POSTEMERGENCE, Rate 400 g/ha)
7: Plant response rating, Crabgrass ([3]; POSTEMERGENCE, Rate 200 g/ha) | Plant response rating, Crabgrass ([3]; POSTEMERGENCE, Rate 400 g/ha) | Plant response rating, Soybean ([8]; POSTEMERGENCE, Rate 400 g/ha)
2: Plant response rating (0 to 10 scale), Wheat ([2]; POSTEMERGENCE) | Plant response rating, Wheat ([2]; POSTEMERGENCE, Rate 200 g/ha) | Plant response rating, Wheat ([2]; POSTEMERGENCE, Rate 400 g/ha) | Plant response rating, Morningglory ([5]; PREEMERGENCE, Rate 400 g/ha) | Plant response rating, Wild oat ([6]; POSTEMERGENCE, Rate 50 g/ha) | Plant response rating (0 to 10 scale), Wild oat ([6]; POSTEMERGENCE) | Plant response rating (0 to 10 scale), Chickweed ([10]; POSTEMERGENCE, Rate 100 g/ha) | Plant response rating, Chickweed ([10]; POSTEMERGENCE, Rate 200 g/ha) | Plant response rating, Chickweed ([10]; POSTEMERGENCE, Rate 400 g/ha)
3: Plant response rating (0 to 10 scale), Rape ([1]; POSTEMERGENCE) | Plant response rating (0 to 10 scale), Crabgrass ([3]; POSTEMERGENCE, Rate 50 g/ha) | Plant response rating (0 to 10 scale), Crabgrass ([3]; POSTEMERGENCE, Rate 100 g/ha) | Plant response rating, Wild oat ([6]; POSTEMERGENCE, Rate 200 g/ha) | Plant response rating, Wild oat ([6]; POSTEMERGENCE, Rate 400 g/ha) | Plant response rating (0 to 10 scale), Corn ([9]; POSTEMERGENCE, Rate 50 g/ha) | Plant response rating (0 to 10 scale), Corn ([9]; POSTEMERGENCE, Rate 100 g/ha)
9: Plant response rating, Rape ([1]; POSTEMERGENCE, Rate 200 g/ha) | Plant response rating, Rape ([1]; POSTEMERGENCE, Rate 400 g/ha) | Plant response rating, Morningglory ([5]; POSTEMERGENCE, Rate 50 g/ha) | Plant response rating (0 to 10 scale), Morningglory ([5]; POSTEMERGENCE) | Plant response rating, Morningglory ([5]; POSTEMERGENCE, Rate 200 g/ha) | Plant response rating, Morningglory ([5]; POSTEMERGENCE, Rate 400 g/ha)
6: Plant response rating, Soybean ([8]; POSTEMERGENCE, Rate 50 g/ha) | Plant response rating (0 to 10 scale), Soybean ([8]; POSTEMERGENCE) | Plant response rating, Soybean ([8]; POSTEMERGENCE, Rate 200 g/ha)
5: Plant response rating, Rape ([1]; POSTEMERGENCE, Rate 50 g/ha) | Plant response rating, Sorghum ([4]; POSTEMERGENCE, Rate 200 g/ha) | Plant response rating, Sorghum ([4]; POSTEMERGENCE, Rate 400 g/ha)
0: Plant response rating, Rape ([1]; PREEMERGENCE, Rate 50 g/ha) | Plant response rating (0 to 10 scale), Rape ([1]; PREEMERGENCE) | Plant response rating, Rape ([1]; PREEMERGENCE, Rate 400 g/ha) | Plant response rating, Rape ([1]; Rate 200 g/ha, PREEMERGENCE) | Plant response rating, Wheat ([2]; PREEMERGENCE, Rate 50 g/ha) | Plant response rating (0 to 10 scale), Wheat ([2]; PREEMERGENCE) | Plant response rating, Wheat ([2]; PREEMERGENCE, Rate 400 g/ha) | Plant response rating, Wheat ([2]; Rate 200 g/ha, PREEMERGENCE) | Plant response rating, Crabgrass ([3]; PREEMERGENCE, Rate 50 g/ha) | Plant response rating (0 to 10 scale), Crabgrass ([3]; PREEMERGENCE, Rate 100 g/ha) | Plant response rating, Crabgrass ([3]; Rate 200 g/ha, PREEMERGENCE) | Plant response rating, Sorghum ([4]; PREEMERGENCE, Rate 50 g/ha) | Plant response rating (0 to 10 scale), Sorghum ([4]; PREEMERGENCE) | Plant response rating, Sorghum ([4]; PREEMERGENCE, Rate 400 g/ha) | Plant response rating, Sorghum ([4]; Rate 200 g/ha, PREEMERGENCE) | Plant response rating, Morningglory ([5]; PREEMERGENCE, Rate 50 g/ha) | Plant response rating (0 to 10 scale), Morningglory ([5]; PREEMERGENCE) | Plant response rating, Morningglory ([5]; Rate 200 g/ha, PREEMERGENCE) | Plant response rating (0 to 10 scale), Wild oat ([6]; PREEMERGENCE) | Plant response rating, Wild oat ([6]; PREEMERGENCE, Rate 400 g/ha) | Plant response rating, Wild oat ([6]; Rate 200 g/ha, PREEMERGENCE) | Plant response rating, Nutsedge ([7]; POSTEMERGENCE, Rate 50 g/ha) | Plant response rating (0 to 10 scale), Nutsedge ([7]; POSTEMERGENCE) | Plant response rating, Nutsedge ([7]; POSTEMERGENCE, Rate 200 g/ha) | Plant response rating, Nutsedge ([7]; POSTEMERGENCE, Rate 400 g/ha) | Plant response rating, Nutsedge ([7]; PREEMERGENCE, Rate 50 g/ha) | Plant response rating (0 to 10 scale), Nutsedge ([7]; PREEMERGENCE) | Plant response rating, Nutsedge ([7]; PREEMERGENCE, Rate 400 g/ha) | Plant response rating, Nutsedge ([7]; Rate 200 g/ha, PREEMERGENCE) | Plant response rating, Soybean ([8]; PREEMERGENCE, Rate 50 g/ha) | Plant response rating (0 to 10 scale), Soybean ([8]; PREEMERGENCE) | Plant response rating, Soybean ([8]; PREEMERGENCE, Rate 400 g/ha) | Plant response rating, Soybean ([8]; Rate 200 g/ha, PREEMERGENCE) | Plant response rating, Corn ([9]; PREEMERGENCE, Rate 50 g/ha) | Plant response rating (0 to 10 scale), Corn ([9]; PREEMERGENCE, Rate 100 g/ha) | Plant response rating, Corn ([9]; PREEMERGENCE, Rate 400 g/ha) | Plant response rating, Corn ([9]; Rate 200 g/ha, PREEMERGENCE) | Plant response rating, Chickweed ([10]; PREEMERGENCE, Rate 50 g/ha) | Plant response rating (0 to 10 scale), Chickweed ([10]; PREEMERGENCE, Rate 100 g/ha) | Plant response rating, Chickweed ([10]; PREEMERGENCE, Rate 400 g/ha) | Plant response rating, Chickweed ([10]; Rate 200 g/ha, PREEMERGENCE)
